The target in one experiment is T1, KRAS G12C 1-169, his-tagged protein, GDP-loaded (Homo sapiens, UniProt P01116, G12C).
T1 construct: KRAS G12C 1-169, his-tagged protein, GDP-loaded
T1 sequence (P01116 1-169 isoform P01116-2 G12C): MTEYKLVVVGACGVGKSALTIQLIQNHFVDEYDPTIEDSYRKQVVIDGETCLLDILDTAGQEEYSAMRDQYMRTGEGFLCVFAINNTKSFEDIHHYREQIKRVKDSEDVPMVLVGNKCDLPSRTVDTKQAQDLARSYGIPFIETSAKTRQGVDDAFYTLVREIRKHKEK
In words: Biochemical assay: covalent binding to KRAS G12C analyzed by mass spectrometry. Note: test concentration or dose not given here. Conditions: compounds 247-342, measured at 30 min.
With `O=C(C#CCO)N1CCN(c2ncnc3cc(-c4ccc(F)cc4F)c(Cl)cc23)CC1` [Compound I-247, 1-(4-(6-chloro-7-(2,4-difluorophenyl)quinazolin-4-yl)piperazain-1-yl)-4-hydoxybut-2-yn-1-one], the Binding % entry is “+++ (+++indicates binding activity greater than 50% and up to 75%)”.

Consider `C=CC(=O)N1CCN(c2ncnc3cc(-c4cc(OC)cc5ccccc45)c(Cl)cc23)CC1` [Compound I-249, 1-(4-(6-chloro-7-(3-methoxynaphthalen-1-yl)quinazolin-4-yl)piperazin-1-yl)prop-2-en-1-one], for which the Binding % entry was “+ (+indicates binding activity from 5% to 25%)”.

Take `C=CC(=O)N1CCN(c2ncnc3cc(-c4c(O)ccc5c4CCCC5)c(Cl)cc23)CC1` [Compound I-250, 1-(4-(6-chloro-7-(2-hydroxy-5,6,7,8-tetrahydronaphthalen-1-yl)quinazolin-4-yl)piperazin-1-yl)prop-2-en-1-one]: the Binding % entry is “++ (++indicates binding activity greater than 25% and up to 50%)”.

Turning to `C=CC(=O)N1CCN(c2ncnc3cc(-c4cc(O)cc5ccccc45)c(Cl)cc23)CC1` [Compound I-251, 1-(4-(6-chloro-7-(3-hydroxynaphthalen-1-yl)quinazolin-4-yl)piperazin-1-yl)prop-2-en-1-one], the Binding % result was “++++ (++++indicates binding activity greater than 75%)”.

Take `C#CC1CN(c2ncnc3c(F)c(-c4ccccc4F)c(Cl)cc23)CCN1C(=O)C=C` (centres unmarked) [Compound I-252, 1-(4-(6-chloro-8-fluoro-7-(2-fluorophenyl)quinazolin-4-yl)-2-ethynylpiperazin-1-yl)prop-2-en-1-one]: the Binding % entry is reported as “++++ (++++indicates binding activity greater than 75%)”.

Turning to `C=CC(=O)N1CCN(c2nc(NCCN(C)C)nc3c(F)c(-c4c(C)ccc5[nH]ncc45)c(Cl)cc23)CC1` [Compound I-253], the Binding % result is reported as “++++ (++++indicates binding activity greater than 75%)”.

Turning to `C=CC(=O)N1CCN(c2ncnc3c(F)c(-c4c(C)c(C)cc5cn[nH]c45)c(Cl)cc23)CC1` [Compound I-255, 1-(4-(6-chloro-7-(5,6-dimethyl-1H-indazol-7-yl)-8-fluoroquinaolin-4-yl)piperazin-1-yl)prop-2-en-1-one], the Binding % entry is “+++ (+++indicates binding activity greater than 50% and up to 75%)”.

As to `C=CC(=O)N1CCN(c2nc(NC)nc3c(F)c(-c4c(C)ccc5[nH]ncc45)c(Cl)cc23)CC1` [Compound I-257, 1-(4-(6-chloro-8-fluoro-7-(5-methyl-1H-indazol-4-yl)-2-(methylamino)quinazolin-4-yl)piperazin-1-yl)prop-2-en-1-one], the Binding % result was “++++ (++++indicates binding activity greater than 75%)”.

As to `C=CC(=O)N1CCN(c2cnnc3cc(-c4c(O)ccc5ccccc45)c(Cl)cc23)CC1` [Compound I-258, 1-(4-(6-chloro-7-(2-hydroxynaphthalen-1-yl)cinnolin-4-yl)piperazin-1-yl)prop-2-en-1-one], the Binding % result was “++ (++indicates binding activity greater than 25% and up to 50%)”.

Take `Cc1coc(/C=C(\C#N)C(=O)N2CCN(c3ncnc4cc(-c5ccccc5F)c(Cl)cc34)CC2)n1` [Compound I-259, (E)-2-(4-(6-chloro-7-(2-fluorophenyl)quinazolin-4-yl)piperazine-1-carbonyl)-3-(4-methyloxazol-2-yl)acrylonitrile]: the Binding % entry was “+++ (+++indicates binding activity greater than 50% and up to 75%)”.

As to `C=CC(=O)N1CCN(c2c(C#N)cnc3cc(-c4c(O)ccc5ccccc45)c(Cl)cc23)CC1` [Compound I-260, 4-(4-acryloylpiperazin-1-yl)-6-chloro-7-(2-hydroxynaphthalen-1-yl)quinoline-3-carbonitrile], the Binding % result is “++ (++indicates binding activity greater than 25% and up to 50%)”.

As for `CC(C)(/C=C(\C#N)C(=O)N1CCN(c2ncnc3cc(-c4ccccc4F)c(Cl)cc23)CC1)CO` [Compound I-261, (E)-2-(4-(6-chloro-7-(2-fluorophenyl)quinazolin-4-yl)piperazine-1-carbonyl)-5-hydroxy-4,4-dimethylpent-2-enenitrile], the Binding % entry was “+ (+indicates binding activity from 5% to 25%)”.

Regarding `N#C/C=C\C(=O)N1CCN(c2ncnc3cc(-c4ccc(F)cc4F)c(Cl)cc23)CC1` [Compound I-263, (Z)-4-(4-(6-chloro-7-(2,4-difluorophenyl)quinaozlin-4-yl)piperazin-1-yl)-4-oxobut-2-enenitrile], the Binding % entry is “+ (+indicates binding activity from 5% to 25%)”.

For `C=CC(=O)N1CCN(c2ncnc3cc(-c4cc(Cl)cc5cn[nH]c45)c(Cl)cc23)CC1` [Compound I-264, 1-(4-(6-chloro-7-(5-chloro-1H-indazol-7-yl)quinazolin-4-yl)piperazin-1-yl)prop-2-en-1-one], the Binding % result was “++ (++indicates binding activity greater than 25% and up to 50%)”.

For `C=CC(=O)N1CCN(c2ncnc3cc(-c4c(O)cccc4C#N)c(Cl)cc23)CC1` [Compound I-265, 2-(4-(4-acryloylpiperazin-1-yl)-6-chloroquinazolin-7-yl)-3-hydroxybenzonitrile], the Binding % entry is listed as “+ (+indicates binding activity from 5% to 25%)”.

With `C=CC(=O)N1CCN(c2ncnc3cc(-c4c(Cl)ccc5[nH]ncc45)c(Cl)cc23)CC1` [Compound I-266, 1-(4-(6-chloro-7-(5-chloro-1H-indazol-4-yl)quinazolin-4-yl)piperazin-1-yl)prop-2-en-1-one], the Binding % entry is “+++ (+++indicates binding activity greater than 50% and up to 75%)”.

Regarding `C=CC(=O)N1CCN(c2ncnc3cc(-c4cc(C(C)(C)O)ccc4F)c(Cl)cc23)CC1` [Compound I-267, 1-(4-(6-chloro-7-(2-fluoro-5-(2-hydroxypropan-2-yl)phenyl)quinazolin-4-yl)piperazin-1-yl)prop-2-en-1-one], the Binding % result was “+ (+indicates binding activity from 5% to 25%)”.

For `C=CC(=O)N1CCN(c2ncnc3cc(-c4c(C)ccc5cn[nH]c45)c(Cl)cc23)CC1` [Compound I-268, 1-(4-(6-chloro-7-(6-methyl-1H-indazol-7-yl)quinazolin-4-yl)piperazin-1-yl)prop-2-en-1-one], the Binding % entry is “+++ (+++indicates binding activity greater than 50% and up to 75%)”.

Regarding `C=CC(=O)N1CCN(c2c(C#N)cnc3c(F)c(-c4c(O)ccc5ccccc45)c(Cl)cc23)CC1` [Compound I-269, 4-(4-acryloylpiperazin-1-yl)-6-chloro-8-fluoro-7-(2-hydroxynaphthalen-1-yl)quinoline-3-carbonitrile], the Binding % entry is “+++ (+++indicates binding activity greater than 50% and up to 75%)”.

`C=CC(=O)N1CCN(c2c(C#N)cnc3cc(-c4c(C)ccc5[nH]ncc45)c(Cl)cc23)CC1` [Compound I-270, 4-(4-acryloylpiperazin-1-yl)-6-chloro-7-(5-methyl-1H-indazol-4-yl)quinoline-3-carbonitrile]: the Binding % result was “+++ (+++indicates binding activity greater than 50% and up to 75%)”.

For `C=CC(=O)N1CCN(c2ncnc3c(F)c(-c4ccccc4F)c(C(F)(F)F)cc23)CC1` [Compound I-271], the Binding % entry was “+++ (+++indicates binding activity greater than 50% and up to 75%)”.

Consider `C=CC(=O)N1CCN(c2ncnc3c(F)c(-c4c(O)cccc4F)c(C(F)(F)F)cc23)CC1` [Compound I-273, 1-(4-(8-fluoro-7-(2-dluoro-6-hydroxyphenyl)-6-(trifluoromethyl)quinaozlin-4-yl)piperazin-1-yl)prop-2-en-1-one], for which the Binding % entry was “++++ (++++indicates binding activity greater than 75%)”.

Turning to `C=CC(=O)N1CCN(c2ncnc3c(F)c(-c4c(C)ccc5cn[nH]c45)c(Cl)cc23)CC1` [Compound I-274, 1-(4-(6-chloro-8-fluoro-7-(6-methyl-1H-indazol-7-yl)quinazolin-4-yl)piperazin-1-yl)prop-2-en-1-one], the Binding % result is “++++ (++++indicates binding activity greater than 75%)”.

Turning to `C=CC(=O)N1CCN(c2ncnc3c(F)c(-c4ccc(F)cc4C(F)(F)F)c(Cl)cc23)CC1` [Compound I-275, 1-(4-(6-chloro-8-fluoro-7-(4-fluoro-2-(trifluoromethyl)phenyl)quinazolin-4-yl)piperazin-1-yl)prop-2-en-1-one], the Binding % result is “++ (++indicates binding activity greater than 25% and up to 50%)”.

Take `C=CC(=O)N1CCN(c2ncnc3cc(-c4cccc(-c5ccn[nH]5)c4)c(Cl)cc23)CC1` [Compound I-276, 1-(4-(7-(3-(1H-pyrazol-5-yl)phenyl)-6-chloroquinazolin-4-yl)piperazin-1-yl)prop-2-en-1-one]: the Binding % result is recorded as “+ (+indicates binding activity from 5% to 25%)”.

As to `C=CC(=O)N1CCN(c2ncnc3c(F)c(-c4c(F)ccc(F)c4O)c(Cl)cc23)CC1` [Compound I-277, 1-(4-(6-chloro-7-(3,6-ddifluoro-2-hydroxyphenyl)-8-fluoroquinazolin-4-yl)piperazin-1-yl)prop-2-en-1-one], the Binding % entry was “+ (+indicates binding activity from 5% to 25%)”.

Consider `C=CC(=O)N1CCN(c2ncnc3c(F)c(-c4ccccc4C(C)(C)O)c(Cl)cc23)CC1` [Compound I-278, 1-(4-(6-chloro-8-fluoro-7-(2-(2-hydroxypropan-2-yl)phenyl)quinazolin-4-yl)piperazin-1-yl)prop-2-en-1-one], for which the Binding % entry was “++ (++indicates binding activity greater than 25% and up to 50%)”.

For `C=CC(=O)N1CCN(c2cnnc3cc(-c4c(O)cccc4F)c(C(F)(F)F)cc23)CC1` [Compound I-279, 1-(4-(7-(2-fluoro-6-hydroxyphenyl)-6-(trifluoromethyl)cinnolin-4-yl)piperazin-1-yl)prop-2-en-1-one], the Binding % result was “+++ (+++indicates binding activity greater than 50% and up to 75%)”.

Still in this experiment, the particulars now being: compounds 247-342, measured at 30 min; listed as 256.
For `C=CC(=O)N1CCN(c2ncnc3c(F)c(-c4cc(O)cc5ccccc45)c(Cl)cc23)CC1` [Compound I-256, 1-(4-(6-chloro-8-fluoro-7-(3-hydroxynaphthalen-1-yl)quinazolin-4-yl)piperazin-1-yl)prop-2-en-1-one], the Binding % result is “+++ (+++indicates binding activity greater than 50% and up to 75%)”.

(Values after patent US10111874B2, “Combination therapies for treatment of cancer” (Araxes Pharma LLC, priority 2014, dated 2018).)
